US9493460B2, “Diimide compounds” (UCL BUSINESS PLC, priority 2013, dated 2016)

Legend:
Panc1 (pancreatic) cells = assay: SRB growth inhibition assay, 96 hr exposure, Panc1; type: cell-based, human; details: Homo sapiens, PANC-1, 96 h exposure
Outline: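 SRB growth inhibition was measured after 96 h exposure to 2-fold serial dilutions of compound, with cells maintained at 37 °C in 5% CO2 and medium containing 10% FBS. Absorbance at 540 nm was expressed as a percentage of untreated control wells. IC50 was derived from these values.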

telomerase = assay: TRAP-LIG cellular telomerase activity assay; type: cell-based, human; details: at the doses relevant to the IC50 values
Protocol: FIG. 1. Gel showing telomerase activity in MIA-Pa-Ca-2 cells treated with compound 3h after seven days of treatment. Lane 1; untreated cells, lanes 2-4; cells treated increasing concentrations of 3h. Telomerase activity was assessed using the TRAP-LIG assay as described in Materials and Methods. Compound concentrations are indicated. Neg; untreated cells, Pos; positive control. Neg: negative control with telomerase but no ligand.
Telomerase activity was determined using the TRAP-LIG assay, a modified telomere repeat amplification protocol that ensures that there is no carry-over of ligand into the second PCR step of the assay. Briefly, 1 μg of protein from untreated and treated cells were incubated with TS forward primer (0.1 μg of 5′-AAT CCG TCG AGC AGA GTT-3′) at 30° C. for 10 min to allow the initial elongation to take place. Elongated products were purified using the QIAquick nucleotide purification kit (Qiagen) according to the manufacturer's instructions. Eluted samples were freeze-dried and re-dissolved in PCR grade water. Re-dissolved PCR products were subjected to amplification in master mix containing ACX reverse primer (1 μM, 5′-GCG CGG [CTTACC]3 CTA ACC-3′), TS forward primer (0.1 μg), TRAP buffer, BSA (5 μg), 0.5 mM dNTPs, and 2U RedHot TAQ polymerase (ABgene, U.K.) for 35 cycles of 94° C. for 30 s, 61° C. for 1 min, and at 72° C. for 1 min. […]

Mia-PaCa2 cells = assay: Senescence β-galactosidase staining; type: cell-based, human; details: 7 days treatment
Protocol: FIG. 4. Micrographs showing the results of staining for evidence of cellular senescence in MiaPaCa2 cells using the β-galactosidase assay. Senescent cells are coloured blue in this procedure. Staining was performed after seven days treatments with (a) vehicle control, ×100 magnification, (b) 3.3 nM of compound 3d, ×200 magnification, (c) 6.6 nM of compound 3d, ×200 magnification, (d) 50 nM of compound 4, ×200 magnification, (e) plot of the percentage of senescent cells at the indicated concentrations of compounds 3d and 4, compared to the background senescence in this cell line (with vehicle control only). Cell counts were performed in triplicate and error bars represent estimated standard deviations.
Senescence detection and quantification experiments were carried out using the Senescence β-galactosidase staining kit (Cell Signalling Technology, MA, USA) according to the manufacturer's protocol. Briefly, 1×10^5 cells were seeded in 6-well plates in 2 ml of medium supplemented with the test compound and incubated for 24 h. Cells were washed (2 ml PBS), fixed (2% formaldehyde and 2% glutaraldehyde in PBS, 15 min, room temperature) and washed (2×2 ml PBS) before staining overnight. Senescent cells, detected by their blue pigmentation, were counted using a light microscope.
CDKN1A encodes the cyclin-dependent kinase p21WAF1 that induces replicative senescence, which is a well-studied consequence of telomerase inhibition and telomere maintenance disruption. […] Compounds 3b and 3d behaved in a similar manner to each other, with concentrations of 3-4 nM being sufficient to result in ˜50-60% of cells becoming senescent after this time-course.

[1] = Pharmacokinetics after bolus IV injection; type: in vivo, Balb/c female mice; details: bolus IV 20 mg/kg, mice
Source text: Balb/c female mice (7-8 weeks old) were housed in microisolator cages, fed with commercial mouse food (Food Harlam 2018, Madison, USA) and allowed to acclimatise for seven days before any procedure.

With CN1CCN(CCCNc2cc3c4c(c(NCCCN5CCN(C)CC5)cc5c4c2C(=O)N(CCCN2CCOCC2)C5=O)C(=O)N(CCCN2CCOCC2)C3=O)CC1 [Compound 3d, 4,9-bis((3-(4-methylpiperazin-1-yl)propyl)amino)-2,7-bis(3-morpholinopropyl)benzo[lmn][3,8]phenanthroline-1,3,6,8(2H,7H)-tetraone] the IC50 (Panc1 (pancreatic) cells) was 0.01 to 0.02 µM, the telomerase activity inhibition (telomerase) was “not inhibitors of telomerase activity” and the “induction of senescence (in words)” value (Mia-PaCa2 cells) was “strong induction of senescence”. The “potency as inducer of cellular senescence relative to compound 4” value (Mia-PaCa2 cells) was about 10 fold, the “drug level at 24 hours” value [1] was “no detectable drug” and the Cmax ([1]; female, Balb/c, mouse, in vivo) was 1.6 µM. For the same compound, the half-life ([1]; female, Balb/c, mouse, in vivo) was 4 h.
